The text below walks through data of publication PMC10958501, “4-Oxypiperidine Ethers as Multiple Targeting Ligands at Histamine H3 Receptors and Cholinesterases” (ACS Chemical Neuroscience, 2024).

Structures are written as SMILES.

In the assay the target is T1, hH3R (Homo sapiens, UniProt Q9Y5N1).
T1 construct: expressed in transfected cells; membrane fractions
In words: hH3R radioligand displacement assay in membrane fractions of HEK-293 cells. It counts as binding. Conditions: [3H]Nα-methylhistamine displacement, HEK-293 membranes; 95% CI in brackets. Here is the method:
The compounds were tested against H3R by an ex vivo assay using isolated guinea pig ileum electrically stimulated to contraction, according to Vollinga et al.[47] The pA2-values were calculated according to Arunlakshana and Schild.[59] The radioligand-displacement assay was performed in membrane fractions of HEK-293 cells stably expressing hH3R. Cell cultivation and membrane preparation were performed according to Kottke et al.[48] The Ki values were calculated from the IC50 values using the Cheng–Prusoff equation.[60] The statistical calculations were performed on −log(Ki). The mean values and 95% confidence intervals were transformed to nanomolar concentrations. The inhibitory activities toward AChE and BuChE of novel ADS compounds were assessed in a spectrophotometric Ellman’s assay using electric eel AChE (eeAChE) and equine BuChE (eqBuChE).[57] Intracellular cAMP accumulation was measured with a homogeneous TR-FRET immunoassay using the LANCE Ultra cAMP kit (PerkinElmer) and HEK293 cells stably expressing the human histamine H3 receptor.[61] A more detailed description of the biological methods is presented in the Supporting Information. […]
considered statistically significant. The pA2 values were compared with the affinity of thioperamide (Sigma-Aldrich, St. Louis, MO, USA).
3.2. hH 3R radioligand displacement binding assay.
The radioligand displacement binding assay was performed in membrane fractions of HEK-293 cells stably expressing hH3R. Cell cultivation and membrane preparation was performed according to Kottke et al 6. For the radioligand displacement assay, radioactively labeled […]
assay volume was set to 200 µL. The compounds were tested in several appropriate concentrations between 100 µM and 0.1 nM. Pipetting was partly done by Freedom Evo® (Tecan). Pitolisant was used to determine non-specific binding at a concentration of 10 µM.
The membrane fraction (20 µg/well), test compounds, and radiolabeled ligand were incubated for 90 minutes at 25 °C while shaking. The bound radioligand was separated from the free radioligand by filtration through GF/B filters pre-treated with 0.3 % (m/v) polyethyleneimine using a cell harvester. Radioactivity was determined by liquid scintillation counting using a MicroBeta® Trilux (Perkin Elmer). The data was obtained in duplicates in at least three independent experiments. Non-specific binding was subtracted from the raw data to calculate specific binding values. The evaluation was performed with GraphPad Prism 6.1 (San Diego, CA, USA) using non-linear regression (one-site competition with a logarithmic scale). The Ki values were calculated from the IC50 values using the Cheng-Prusoff equation 7. The statistical calculations were performed on –log(Ki). […]
(In general: Displacement assays read how much labelled ligand stays bound in the presence of the test substance.)

A word on the Ki: it is the equilibrium dissociation constant of an inhibitor or competing ligand from its target. A higher Ki goes with weaker binding.

T1 sequence (Q9Y5N1 whole entry): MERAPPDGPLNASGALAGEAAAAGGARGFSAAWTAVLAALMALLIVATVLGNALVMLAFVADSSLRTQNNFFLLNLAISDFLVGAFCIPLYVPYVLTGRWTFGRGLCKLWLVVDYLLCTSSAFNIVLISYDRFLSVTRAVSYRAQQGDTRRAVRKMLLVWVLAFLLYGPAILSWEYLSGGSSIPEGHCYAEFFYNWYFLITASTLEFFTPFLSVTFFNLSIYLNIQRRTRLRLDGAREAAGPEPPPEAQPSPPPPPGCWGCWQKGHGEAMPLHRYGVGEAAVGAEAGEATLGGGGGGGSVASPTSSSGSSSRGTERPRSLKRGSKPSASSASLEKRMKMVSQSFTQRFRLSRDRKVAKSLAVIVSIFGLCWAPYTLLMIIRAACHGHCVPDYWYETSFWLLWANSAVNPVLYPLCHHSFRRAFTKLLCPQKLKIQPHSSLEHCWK

As to `CCCN(C)Cc1ccc2cc(COC3CCN(Cc4ccccc4)CC3)ccc2c1` [ADS031, N-((6-(((1-Benzylpiperidin-4-yl)oxy)methyl)naphthalen-2-yl)methyl)-N-methylpropan-1-amine], affinity was put at a Ki of 12.5 nM.
